Data as given in US20260130370A1, “PLANT ACTIVATOR” (IBIDEN CO., LTD., priority 2021, published 2026).

System: potherb mustard (“Mizuna”, Brassica rapa var. laciniifolia)
Assay: Evaluation of the Mizuna (potherb mustard) growth
Assay type: in vivo
Details: 0.05 mg/L foliar spraying (300 L/10a) 9 and 12 days after sowing, harvested 21 days after sowing
Procedure: Dilutions were prepared by adding distilled water to the above-obtained trihydroxyoctadecaenoic acid solution, ketol fatty acid solution, and culture broth containing fatty acid metabolites, so that the final concentration of each of trihydroxyoctadecaenoic acid, ketol fatty acids, and fatty acid metabolites was 0.05 mg/L, and the resulting dilutions gave treatment solutions. A 72-well cell tray was filled with culture soil (TAKII & CO., LTD, trade name “Tanemaki Baido”), and the forced sprouting seeds of potherb mustard were sown in. After budding, the potherb mustard seedlings were thinned out for two plants per cell. Light condition was set for 12 hours for light period/12 hours for dark period. Water was supplied by irrigating with an appropriate amount of tap water about once every four days. 9 and 12 days after sowing, the plants were treated with foliar spraying by spraying each of the treatment solutions (300 L/10a) to the above-ground part of plants using a sprayer. The negative control was not subjected for the spraying of the treatment solution (“no treatment area”).
21 days after sowing, the plants were harvested and the wet weight of the above-ground part of plants per plant and the leaf length were measured.

SMILES: CC/C=C\C/C=C\CC(=O)C(O)CCCCCCCC(=O)O (centres unmarked) [ketol fatty acid, 9-hydroxy-10-oxo-12 (Z), 15 (Z)-octadecadienoic acid]
- wet weight of the above-ground part (average n=20, no treatment area 0.19 g/plant): little increase
- leaf length (average n=20, no treatment area 8.1 cm): reduced
